Experimental findings from PubChem BioAssay AID1919015 (Molecular Pharmacology Branch, DTP, NCI, 2023) are described below.

The test deals with OVCAR-5 complex spheroids with HUVEC/MSC, viability, % test/control. Nature of the test: Anticancer human tumor OVCAR-5 cell line growth inhibition [AhR].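 For all read-outs here: spheroids exposed to compounds for 7 days.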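 For viability, T/C: 100% = DMSO vehicle control wells.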 Particulars: for viability, T/C: stronger effect = lower value. From the text:
Multicellular complex tumor spheroid response to aryl hydrocarbon receptor antagonists in combination with a variety of drugs and investigational agents in selected tumor cell lines
The current study was undertaken to assess response to aryl hydrocarbon receptor antagonists in combination with standard-of-care drugs and investigational agents in solid tumor complex spheroid models. Complex spheroids include a stromal component modeled by human endothelial cells (HUVEC) and fibroblasts modeled by human mesenchymal stem cells (MSCs). The concentration ranges selected for each drug and investigational agent were based upon clinically achievable concentrations if the clinical Cmax of the agent was known.
Compounds. The drugs and investigational agents: BAY 2416964 (NSC825713), GNF351 (NSC835774), CH-223191 (NSC835775), CPI-455 (NSC825282), aza-TdCyd (NSC777586), decitabine (NSC127716), belinostat (NSC758774), entinostat (NSC756642), pevonedistat (NSC761192), tazemetostat (NSC777109), talazoparib (NSC765396), olaparib (NSC753686), selinexor (NSC780203), nedisertib (M3814, NSC802822), bortezomib (NSC756655), venetoclax (NSC766270), doxorubicin (NSC123127), elimusertib (BAY189344, NSC800525), ceralasertib (AZD6738, NSC777638), TAK-243 (NSC785004), alisertib (NSC759677), etoposide (NSC141540), topotecan (NSC609699), eribulin (NSC707389), gemcitabine (NSC613327), carboplatin (NSC241240), cisplatin (NSC119875), and SN-38 (NSC673596) were obtained from the National Cancer Institute (NCI) Developmental Therapeutics Program Chemical Repository (32). The FDA-approved anticancer drug set is available from the Developmental Therapeutics Program at https://dtp.cancer.gov/organization/dscb/obtaining/available plates.htm. […] The stock solutions were prepared in dimethyl sulfoxide (DMSO, Sigma-Aldrich, St. Louis, MO, cat. D2650), except for the platinum compounds which were prepared in saline (Quality Biological, Gaithersburg, MD, cat. 114-055-101), at 800-fold the tested concentration and stored at -70 degrees C prior to their use. All drugs and investigational agents were tested over a range starting from a high concentration at or near the clinical Cmax and decreasing in half-log increments. If the clinical Cmax for an agent had not been determined, the highest concentration tested was 10 microM (Table 1).
Cell Culture. All cells were maintained in an incubator at 37 degrees C and 5% CO2 with 95% humidity. The PDC lines were cultured according to standard operating procedures established by the NCI PDMR (https://pdmr.cancer.gov). Briefly, all PDCs were thawed and cultured in Matrigel-coated flasks prepared with a working solution of 1X Ham's F-12 nutrient mix, without supplementation (Invitrogen, Waltham, MA, cat. 11765054), 100 U/mL penicillin-streptomycin (Invitrogen, cat. 15140122), and 2.5% Matrigel (Corning Inc., Corning, NY, cat. 354248) for the first three passages. All PDCs were cultured in complete DMEM/F-12 media containing advanced DMEM/F-12 (Invitrogen, cat. 12634028), 4.9% defined fetal bovine serum, heat inactivated (HyClone Laboratories Inc., Logan, UT, cat. SH30070.03HI), 389 ng/mL hydrocortisone (Sigma-Aldrich, cat. H4001), 9.7 ng/mL human EGF recombinant protein (Invitrogen, cat. PHG0313), 23.4 microg/mL adenine (Sigma-Aldrich, cat. A2786), 97.3 U/mL penicillin-streptomycin (Invitrogen, cat. 15140122), 1.9 mM L-glutamine (Invitrogen, cat. 25030081), and 9.7 microM Y-27632 dihydrochloride (Tocris Bioscience, Bristol, United Kingdom, cat. 1254). The PDCs were cultured in complete DMEM/F12 media without 10 microM Y-27632 dihydrochloride for at least two passages prior to the screen. The established cell lines NCI-H1341 and […] were cultured in DMEM/F-12, HEPES (Invitrogen, cat. 11330032), 5% defined fetal bovine serum (HyClone Laboratories Inc., cat. SH30070.03), ITS premix universal culture supplement [insulin (5 microg/mL), transferrin (5 microg/mL), and selenious acid (5 ng/mL)] […]

SMILES strings stand for the structures. Values joined by “and” are separate entries in the source; they are usually repeats but may differ in a detail not shown here. Equal values may be shown once. Bounds are passed on as bounds.

In the case of `Nc1ccccc1NC(=O)c1ccc(CNC(=O)OCc2cccnc2)cc1`, the viability, T/C by setting is: (compound 0.0316 µM) 92.2% and 93.7% and 84.8%; (compound 0.1 µM) 90.3% and 88.7% and 81.2%; (compound 0.316 µM) 75.1% and 77.2% and 67.5%; (compound 1 µM) 53.3% and 52.3% and 33.1%; (compound 3.16 µM) 23.5% and 21.1% and 19.9%; (compound 10 µM) 9.94% and 8.4% and 7.9%. Under “curve of compound”, the half-maximal inhibitory concentration (IC50) is 1.08 µM and 1.05 µM and 0.58 µM.

For the compound `CC1COCCN1c1cc(-c2ccnn2C)c2ccnc(-c3ccn[nH]3)c2n1` (centres undefined), the viability, T/C (compound 0.00316 µM) is 105% and 103% and 102%; the viability, T/C (compound 0.01 µM) is 103% and 101% and 105%; the viability, T/C (compound 0.0316 µM) was 102% and 95.4% and 103%; the viability, T/C (compound 0.1 µM) was 84.8% and 79.3% and 79.7%; the viability, T/C (compound 0.316 µM) was 47.3% and 38.3% and 41.1%; the viability, T/C (compound 1 µM) was 30.7% and 25.6% and 26.6%. Also, under “curve of compound”, the IC50 is 0.29 µM and 0.229 µM and 0.24 µM.

`Cn1ncnc1C1c2n[nH]c(=O)c3cc(F)cc(c23)NC1c1ccc(F)cc1` (centres undefined) + CC(CO)NC(=O)c1cc(-c2ccc(Cl)cc2)nn(-c2cnn(C)c2)c1=O: the IC50 was > 0.1 µM (curve of first compound, second compound 0.1 µM); > 0.1 µM (curve of first compound, second compound 0.316 µM); > 0.1 µM (curve of first compound, second compound 1 µM); > 0.1 µM (curve of first compound, second compound 3.16 µM); > 0.1 µM (curve of first compound, second compound 10 µM). The viability, T/C was 104% (second compound 0.1 µM, first compound 0.000316 µM); 105% (second compound 0.1 µM, first compound 0.001 µM); 105% (second compound 0.1 µM, first compound 0.00316 µM); 105% (second compound 0.1 µM, first compound 0.01 µM); 104% (second compound 0.1 µM, first compound 0.0316 µM); 101% (second compound 0.1 µM, first compound 0.1 µM). Moreover, the viability, T/C is 104% (second compound 0.316 µM, first compound 0.000316 µM); 110% (second compound 0.316 µM, first compound 0.001 µM); 106% (second compound 0.316 µM, first compound 0.00316 µM); 107% (second compound 0.316 µM, first compound 0.01 µM); 105% (second compound 0.316 µM, first compound 0.0316 µM); 99.7% (second compound 0.316 µM, first compound 0.1 µM). In addition, the viability, T/C reads like this: (second compound 1 µM, first compound 0.000316 µM) 112%; (second compound 1 µM, first compound 0.001 µM) 114%; (second compound 1 µM, first compound 0.00316 µM) 112%; (second compound 1 µM, first compound 0.01 µM) 108%; (second compound 1 µM, first compound 0.0316 µM) 112%; (second compound 1 µM, first compound 0.1 µM) 108%. For the same compound, the viability, T/C is 106% (second compound 3.16 µM, first compound 0.000316 µM); 103% (second compound 3.16 µM, first compound 0.001 µM); 103% (second compound 3.16 µM, first compound 0.00316 µM); 96.2% (second compound 3.16 µM, first compound 0.01 µM); 101% (second compound 3.16 µM, first compound 0.0316 µM); 100% (second compound 3.16 µM, first compound 0.1 µM). In addition, the viability, T/C was 97.6% (second compound 10 µM, first compound 0.000316 µM); 97.8% (second compound 10 µM, first compound 0.001 µM); 99.5% (second compound 10 µM, first compound 0.00316 µM); 95.5% (second compound 10 µM, first compound 0.01 µM); 93.5% (second compound 10 µM, first compound 0.0316 µM); 94.6% (second compound 10 µM, first compound 0.1 µM).

As usually defined, the viability, T/C is the ratio of treated to control. One may read the IC50 as the concentration needed to halve the response being measured.
